Laboratory results published in PMC8224775, “Five Tetramic Acid Derivatives Isolated from the Iranian Fungus Colpoma quercinum CCTU A372” (Biomolecules, 2021).
Like-named read-outs stand apart in the source and are kept apart here.

Columns and labels:
Assay in all cases: 5-day MTT cytotoxicity assay
[1] = tested on: human lung carcinoma A-549; type: cell-based; settings: A549, 120 h, A-549, 5-day MTT assay, read-out: IC50
Procedure: (§1) Cytotoxicity of compounds 1‒5 was initially determined against two cancer cell lines (mouse fibroblasts L-929 and human endocervical adenocarcinoma KB-3.1) by using a 5-day MTT assay according to an established procedure.
(§2) In 96-well flat-bottom microtiter plates, cell lines with serial dilution of the test compounds (final range: 37 to 0.6 × 10^−3 µg/mL) were incubated for five days. After five days, the cells were dyed using 3-(4,5-dimethyl-2-thiazolyl)-2,5-diphenyl-2H-tetrazolium bromide (MTT), which is only converted to its purple formazan derivative by living cells. The half-maximum inhibitory concentration (IC50 in µM) was calculated via the colorimetric method in a microplate reader using absorption at 595 nm. In addition, when an inhibition with an IC50 < 50 µM was observed, other cell lines were subjected to the test compounds to evaluate their further cytotoxicity: PC-3 (human prostate adenocarcinoma), SK-OV-3 (human ovary adenocarcinoma), MCF-7 (human breast adenocarcinoma), A-431 (human squamous carcinoma), and A549 (human lung carcinoma). A detailed procedure, including the colorimetric method to determine the cell viability, can be found in the SI.
(§3) Protocol: Cytotoxicity Assay
(§4) The assay was co nducted in 9 6-well flat -botto m microtiter plates using the parameters summarised in T able S2 and as described in [S2]. Cell l ines L-929 and KB-3.1 were incubated at 37 °C under 10 % CO2 in Gibco™ DMEM medium (T her mo Fisher Scientific, Waltham, M A, USA) supplemented with 10 % FBS. A microtiter plate was filled wit h 120 μ L o f this suspensio n (50,000/mL) in each well. Seperatel y, a nother microti ter plate wa s filled wit h 100 μL of gro wth medium in each well. Then, 50 μ L of the test compound solutions (1 mg/mL) were given to wells of the first column in two replicates (one compound per row). Cells without additives and MeOH were used as nega tive controls. Starting from the first column, 50 μ L of the solutions were gradually transferred to the next column, the contents thoroughly mixed, and 50 μL transferred to the following column. This created a serial dilution of the test compounds ranging from 333 μ g/mL to 1.9×10-3 μg/ mL. T he re mai ni ng 50 μ L after column twelve were discarded. From this microtiter plate, 60 μ L of the solutions fro m 111 μ g/mL to 1.9×10-3 μg/mL we r e give n to t he firs t p late co ntai ni ng 1 2 0 μ L of the cell suspensions (i.e. the highest co ncentration 333 μ g/ mL wa s no t used). T his resul ted in fi nal compo und concentratio ns rangi ng fro m 37 μ g/mL to 0.6×10-3 μg/ mL. After 5 days o f incubatio n under the aforementioned incubatio n conditions, the half maximu m inhibitory co ncentrations (IC50) were deter mined using a colorimetric tetrazolium d ye MT T assa y [S3]. For this, 20 μ L of a 5 mg/mL solution of 3-(4,5-dimethyl-2 -thiazolyl) -2,5-diphenyl-2H-tetrazolium br omide (MTT) were added to each well and incubated for two hours at 37 °C. T hen, the microtiter plate was ce ntrifuged (3,000 rpm, 5 min) and the supernatant removed by holding the plate upside-down and gentle shaking. Afterwards, the wells were washed using 100 μ L of phosphate buffered saline (PBS). T he plate was a gain ce ntrifuged a nd the supernata nt re mo ved as described before.
(§5) T hen, 1 0 0 μ L of an isopropanol:HCl solution (1L isopropanol+4 mL HCl 37 % w/v) were added to the wells. After incubating for 10 min at ambient temperature, the absorption of the wells at 595 nm was measured with an Infinite® 200 Pro microplate reader (TECAN, Männedorf, Schweiz). The absorption values of the cells without additives were averaged and set to 100 % cell viability. Then, the means of absorption of the two compound replicates were set in relation to the blank media. T hese percentage values were plotted against the concentratio n range (37 μ g/mL to 0.6×10−3 μg/ mL). T he IC50 value was r ead fro m the plot (in μ g/ mL) a nd the uni ts conversed […]
to μM. […]

[2] = tested on: human breast adenocarcinoma MCF-7; type: cell-based; settings: MCF-7, 5-day MTT assay, read-out: IC50
Procedure: as §1, §2, §3, §4, §5
to μM. […]

[3] = tested on: human prostate cancer PC-3; type: cell-based; settings: 120 h, PC-3, 5-day MTT assay, read-out: IC50
Procedure: as §1, §2, §3, §4, §5
to μM. […]

[4] = tested on: ovarian carcinoma SK-OV-3; type: cell-based, human; settings: SK-OV-3, 5-day MTT assay, read-out: IC50
Procedure: as §1, §2, §3, §4, §5
to μM. […]

[5] = tested on: squamous cell carcinoma A-431; type: cell-based, human; settings: A-431, 5-day MTT assay, read-out: IC50
Procedure: as §1, §2, §3, §4, §5
to μM. […]

## CCC(C(=O)O)C1C(C)=CC2CC(C)CCC2C1(C)C(O)=C1C(=O)C(C)N(C)C1=O (centres unmarked) [compound 2, Colposetin B]
[1]
  IC50: 16.5 µM
[2]; Homo sapiens, MCF7, 120 h
  IC50: 6.2 to 8.1 µM
[2]
  IC50: 7.9 µM
[3]
  IC50: 17.9 µM
[4]; Homo sapiens, SK-OV-3, 120 h
  IC50: 6.2 to 8.1 µM
[4]
  IC50: 8.1 µM
[5]
  IC50: 6.2 µM
[5]; Homo sapiens, A-431, 120 h
  IC50: 6.2 to 8.1 µM
